Tests used:
Assay in all cases: Post-emergence efficacy, glasshouse spray test
Format in all cases: in vivo
[1] = test system: Digitaria sanguinalis (DIGSA); conditions: Digitaria sanguinalis, post-emergence, 312 h; Application Rate 500 g/Ha; evaluated after 13 days; read-out: Control of weed species after post-emergence application, DIGSA (100=total damage to plant; 0=no damage to plant)
In short: (§1)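 Spray solution: compound dissolved in acetone and IF50 emulsifier/solvent mix to 50 g/l stock, then diluted to test concentration in 0.25% or 1% sodium lauryl ether sulphate + 1% ammonium sulphate. Applied post-emergence to 14-day plants; injury scored 0–100 after 13 days.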

[2] = test system: Amaranthus palmeri (AMAPA); conditions: Amaranthus palmeri, post-emergence, 312 h; Application Rate 500 g/Ha; evaluated after 13 days; read-out: Control of weed species after post-emergence application, AMAPA (100=total damage to plant; 0=no damage to plant)
In short: as §1

[3] = test system: Euphorbia heterophylla (EPHHL); conditions: Euphorbia heterophylla, post-emergence, 312 h; Application Rate 500 g/Ha; evaluated after 13 days; read-out: Control of weed species after post-emergence application, EPHHL (100=total damage to plant; 0=no damage to plant)
In short: as §1

[4] = test system: Lolium perenne (LOLPE); conditions: Lolium perenne, post-emergence, 312 h; Application Rate 500 g/Ha; evaluated after 13 days; read-out: Control of weed species after post-emergence application, LOLPE (100=total damage to plant; 0=no damage to plant)
In short: as §1

[5] = test system: Ipomoea hederacea (IPOHE); conditions: Ipomoea hederacea, post-emergence, 312 h; Application Rate 500 g/Ha; evaluated after 13 days; read-out: Control of weed species after post-emergence application, IPOHE (100=total damage to plant; 0=no damage to plant)
In short: as §1

[6] = test system: Chenopodium album (CHEAL); conditions: Chenopodium album, post-emergence, 312 h; Application Rate 500 g/Ha; evaluated after 13 days; read-out: Control of weed species after post-emergence application, CHEAL (100=total damage to plant; 0=no damage to plant)
In short: as §1

[7] = test system: Echinochloa crus-galli (ECHCG); conditions: Echinochloa crus-galli, post-emergence, 312 h; Application Rate 500 g/Ha; evaluated after 13 days; read-out: Control of weed species after post-emergence application, ECHCG (100=total damage to plant; 0=no damage to plant)
In short: as §1

[8] = test system: Eleusine indica (ELEIN); conditions: Eleusine indica, post-emergence, 312 h; Application Rate 500 g/Ha; evaluated after 13 days; read-out: Control of weed species after post-emergence application, ELEIN (100=total damage to plant; 0=no damage to plant)
In short: as §1

[9] = test system: Setaia fabei (SETFA); conditions: Setaria faberi, post-emergence, 312 h; Application Rate 500 g/Ha; evaluated after 13 days; read-out: Control of weed species after post-emergence application, SETFA (100=total damage to plant; 0=no damage to plant)
In short: as §1

With `N[C@@H](CC[n+]1ccc(-c2ncco2)cn1)C(=O)O` [Compound A110] the pest or weed control at 500 g/ha [1] was 90%, the pest or weed control at 500 g/ha [2] was 90% and the pest or weed control at 500 g/ha [3] was 40%. For the same compound, the pest or weed control at 500 g/ha [4] was 20%, the pest or weed control at 500 g/ha [5] was 20% and the pest or weed control at 500 g/ha [6] was 80%. It also gave a pest or weed control at 500 g/ha [7] of 100%, a pest or weed control at 500 g/ha [8] of 100% and a pest or weed control at 500 g/ha [9] of 80%.

`O=S(=O)([O-])OCC[n+]1ccc(-c2ncco2)cn1` [Compound A67] was tested, and the pest or weed control at 500 g/ha [1] was 90%, the pest or weed control at 500 g/ha [2] was 100% and the pest or weed control at 500 g/ha [3] was 80%. It also gave a pest or weed control at 500 g/ha [4] of 60%, a pest or weed control at 500 g/ha [5] of 80% and a pest or weed control at 500 g/ha [6] of 80%. For the same compound, the pest or weed control at 500 g/ha [7] was 70%, the pest or weed control at 500 g/ha [8] was 90% and the pest or weed control at 500 g/ha [9] was 80%.

`O=C(O)CC[n+]1ccc(-c2ccoc2)cn1` [Compound A43] gave a pest or weed control at 500 g/ha [1] of 20%, a pest or weed control at 500 g/ha [2] of 100% and a pest or weed control at 500 g/ha [3] of 80%. It also gave a pest or weed control at 500 g/ha [4] of 0%, a pest or weed control at 500 g/ha [5] of 20% and a pest or weed control at 500 g/ha [6] of 90%. The pest or weed control at 500 g/ha [7] was 10%, the pest or weed control at 500 g/ha [8] was 10% and the pest or weed control at 500 g/ha [9] was 10%.

`CCOC(=O)c1oc(-c2cc[n+](CCC(=O)O)nc2)nc1C` [Compound A130] showed a pest or weed control at 500 g/ha [1] of 60%, a pest or weed control at 500 g/ha [2] of 100% and a pest or weed control at 500 g/ha [3] of 100%. It also gave a pest or weed control at 500 g/ha [4] of 50%, a pest or weed control at 500 g/ha [5] of 50% and a pest or weed control at 500 g/ha [6] of 50%. It also gave a pest or weed control at 500 g/ha [7] of 60%, a pest or weed control at 500 g/ha [8] of 80% and a pest or weed control at 500 g/ha [9] of 30%.

`Cn1cnc(-c2cc[n+](CCC(=O)O)nc2)n1` [Compound A51] gave a pest or weed control at 500 g/ha [1] of 90%, a pest or weed control at 500 g/ha [2] of 100% and a pest or weed control at 500 g/ha [3] of 90%. For the same compound, the pest or weed control at 500 g/ha [4] was 60%, the pest or weed control at 500 g/ha [5] was 30% and the pest or weed control at 500 g/ha [6] was 100%. The pest or weed control at 500 g/ha [7] was 90%, the pest or weed control at 500 g/ha [8] was 70% and the pest or weed control at 500 g/ha [9] was 90%.

In the case of `O=S(=O)([O-])CC[n+]1ccc(-c2cocn2)cn1` [Compound A22, 2-(4-oxazol-4-ylpyridazin-1-ium-1-yl)ethanesulfonate], the pest or weed control at 500 g/ha [1] was 20%, the pest or weed control at 500 g/ha [2] was 30% and the pest or weed control at 500 g/ha [3] was 30%. It also gave a pest or weed control at 500 g/ha [4] of 10%, a pest or weed control at 500 g/ha [5] of 10% and a pest or weed control at 500 g/ha [6] of 20%. It also gave a pest or weed control at 500 g/ha [7] of 20%, a pest or weed control at 500 g/ha [8] of 20% and a pest or weed control at 500 g/ha [9] of 20%.

`CC(C)(CC(=O)O)[n+]1ccc(-c2ncco2)cn1` [Compound A107] was tested, and the pest or weed control at 500 g/ha [1] was 70%, the pest or weed control at 500 g/ha [2] was 100% and the pest or weed control at 500 g/ha [3] was 30%. The pest or weed control at 500 g/ha [4] was 20%, the pest or weed control at 500 g/ha [5] was 20% and the pest or weed control at 500 g/ha [6] was 50%. The pest or weed control at 500 g/ha [7] was 40%, the pest or weed control at 500 g/ha [8] was 30% and the pest or weed control at 500 g/ha [9] was 50%.

With `O=S(=O)([O-])N1CCCC1C[n+]1ccc(-c2ncco2)cn1` (stereo not drawn) [Compound A101] the pest or weed control at 500 g/ha [1] was 70%, the pest or weed control at 500 g/ha [2] was 70% and the pest or weed control at 500 g/ha [3] was 70%. It also gave a pest or weed control at 500 g/ha [4] of 20%, a pest or weed control at 500 g/ha [5] of 40% and a pest or weed control at 500 g/ha [6] of 60%. The pest or weed control at 500 g/ha [7] was 40%, the pest or weed control at 500 g/ha [8] was 30% and the pest or weed control at 500 g/ha [9] was 60%.

`Cn1cnc(-c2cc[n+](CCOS(=O)(=O)[O-])nc2)n1` [Compound A118] gave a pest or weed control at 500 g/ha [1] of 90%, a pest or weed control at 500 g/ha [2] of 50% and a pest or weed control at 500 g/ha [3] of 70%. The pest or weed control at 500 g/ha [4] was 40%, the pest or weed control at 500 g/ha [5] was 30% and the pest or weed control at 500 g/ha [6] was 30%. It also gave a pest or weed control at 500 g/ha [7] of 90%, a pest or weed control at 500 g/ha [8] of 70% and a pest or weed control at 500 g/ha [9] of 90%.

From patent US20210053957A1, “HERBICIDAL COMPOUNDS” (SYNGENTA PARTICIPATIONS AG, priority 2018, published 2021)
